{"source": "paper PMC11966596", "about": "“Perturbation-Modulated Native Mass Spectrometry Excludes a Nonspecific Drug Target Protein Binder Based on Conformation Stability Change” (Analytical Chemistry, 2025)", "key": {"lysozyme": {"target": "T1, lysozyme (Gallus gallus, UniProt P00698)", "T1 construct": "gene LYZ", "T1 sequence (P00698 19-147)": "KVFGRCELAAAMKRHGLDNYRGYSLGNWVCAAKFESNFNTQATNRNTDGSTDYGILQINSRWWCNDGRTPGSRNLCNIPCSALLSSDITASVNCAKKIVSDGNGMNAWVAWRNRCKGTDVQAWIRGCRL", "assay": "native OPP-ESI-MS, charge state distribution", "assay_type": "binding", "details": "100 μM protein, 1 mM ligand; 25 mM ammonium acetate; OPP solvent 10 mM NH4Ac"}, "[1]": {"target": "DHFR (recombinant human DHFR) (Homo sapiens, UniProt P00374)", "sequence (P00374 whole entry)": "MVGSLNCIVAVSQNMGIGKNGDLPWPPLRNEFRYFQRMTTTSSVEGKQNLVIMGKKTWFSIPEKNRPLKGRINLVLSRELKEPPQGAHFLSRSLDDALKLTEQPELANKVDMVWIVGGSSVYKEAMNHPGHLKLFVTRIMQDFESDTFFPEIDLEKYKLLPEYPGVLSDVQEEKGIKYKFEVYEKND", "details": "5 μM his-tagged protein; 100 mM ammonium acetate; co-purified NADPH present"}}, "data": [{"smiles": "CC(=O)N[C@H]1[C@H](O[C@H]2[C@H](O)[C@@H](NC(C)=O)C(O)O[C@@H]2CO)O[C@H](CO)[C@@H](O[C@@H]2O[C@H](CO)[C@@H](O)[C@H](O)[C@H]2NC(C)=O)[C@@H]1O", "note": "(some centres unmarked) [NTAC]", "values": [{"measurement": "R (bound/unbound protein ratio)", "setting": "lysozyme", "value": 0.59}]}, {"smiles": "Nc1nc(N)c2nc(CNc3ccc(C(=O)N[C@@H](CCC(=O)O)C(=O)O)cc3)cnc2n1", "note": "[aminopterin]", "values": [{"measurement": "% binding at 100 μM", "setting": "[1]", "value": 100, "unit": "%"}]}]}
